Measurements as given in patent US4748251A, “7-n-aminomethylenemitomycin derivative” (priority 1985, dated 1988).
In brackets after ≈: the same amount, converted by molar mass. Read-outs that look alike come from different tables or passages of the source.

Columns and labels:
[1] = tested on: Streptococcus faecalis ATCC 10541; test: Antibacterial activity, agar dilution method, pH 7.0 (SF); type: cell-based; conditions: Enterococcus faecalis
Description: (§1) Antibacterial activities of some compounds covered by the present invention against various bacteria are shown by the minimum growth inhibitory concentration (μg/ml) in Table 1. The minimum growth inhibitory concentration was measured at pH 7.0 according to the agar dilution method. In the table, bacteria are indicated by the following letters.
SF: Streptococcus faecalis ATCC 10541

[2] = tested on: Shigella sonnei ATCC 9290; test: Antibacterial activity, agar dilution method, pH 7.0 (SS); type: cell-based
Description: as §1
SS: Shigella sonnei ATCC 9290

[3] = tested on: Staphylococcus aureus ATCC 6538P; test: Antibacterial activity, agar dilution method, pH 7.0 (SA); type: cell-based; conditions: ATCC6538P
Description: as §1
SA: Staphylococcus aureus ATCC 6538P

[4] = tested on: Klebsiella pneumoniae ATCC 10031; test: microbe, parasite or virus in culture; type: cell-based; conditions: ATCC10031, pH 7, read-out: minimum growth inhibitory concentration
Description: The minimum growth inhibitory concentration was measured at pH 7.0 according to the agar dilution method. In the table, bacteria are indicated by the following letters.
KP: Klebsiella pneumoniae ATCC 10031

Bacillus subtilis 10707 = test: Antibacterial activity, agar dilution method, pH 7.0 (BS); type: cell-based
Description: as §1
BS: Bacillus subtilis 10707

[5] = tested on: Proteus vulgalis ATCC 6897; test: Antibacterial activity, agar dilution method, pH 7.0 (PV); type: cell-based
Description: as §1
PV: Proteus vulgalis ATCC 6897

leukemia P-388 = test: Anti-tumor activity against leukemia P-388; type: in vivo, mouse (CDF1); conditions: for maximum increased life span: P-388, Table 3, maximum over doses; for ILS %: i.p. once, 33 days
Description: (§2) Ascites was sampled from the abdominal cavity of tumor-bearing mice (DBA/2) 7 days after transplantation of P-388 ascitic tumor. The number of the P-388 cells in the ascites was counted. A suspension of the tumor cells of 5×10^6 /ml was prepared using sterilized physiological saline, and 0.2 ml of the suspension (containing 1×10^6 cells) was intraperitoneally transplanted to CDF1 mice weighing 20 to 25 g. Twenty-four hours after the transplantation of the tumor, a test compound was intraperitoneally administered once to groups of the CDF1 mice, each group consisting of 6 mice. […] The effect of the compound was evaluated by a ratio of a mean survival days of the group treated with the compound to a mean survival days of the control group (untreated group) after 33 days of observation (Increased Life Span, ILS %).

Acute toxicity in mice = test: Acute toxicity in mice; parameters: species or system mouse (ddY strain); conditions: mouse, in vivo, ip; intraperitoneally once, ddY mice, 14 days observation, Beherns Kaerber's method
Description: (§3) Taking some of the compounds falling within the present invention as examples, anti-tumor activity (ED50) against Sarcoma 180 solid tumor and acute toxicity (LD50) as well as effect on peripheral leucocytes number (WBC4000) are shown in Table 2.
Each animal of the test group consisting of 5 ddY mice was administered intraperitoneally once with a test compound. […] The LD50 was determined by Beherns Kaerber's method.

Sarcoma 180 solid tumor = test: Anti-tumor activity against Sarcoma 180 solid tumor in mice; type: in vivo, mouse (ddY strain); conditions: Mus musculus, Sarcoma-180, ip, 168 h; dose reducing tumor volume to 50% of control; intraperitoneal 24 hours after implantation; tumor measured 7 days after implantation
From the text: as §3
(1) Effect against Sarcoma 180 solid tumor cells:
5×10^6 cells of Sarcoma 180 solid tumor were implanted into ddY mice. 7 days later, ascites cells were sampled. The cells were washed once with a sterilized physiological solution of sodium chloride and were used to prepare a cell supspension containing 5×10^7 cells per ml. On each occasion, 0.1 ml of the cell suspension was subcutaneously implanted into the right axilla of a male mouse (ddY strain; body weight 20±2 g). The test compound was dissolved in a physiological solution of sodium chloride with or without addition of Tween 80 and was administered intraperitoneally into each mouse of a group consisting of 5 mice at a dose of 0.1-0.2 ml, 24 hours after the implantation of the tumor cells.
The anti-tumor activity was determined in the following manner. 7 days after the implantation, the major axis (a) and the minor axis (b) of the tumor were measured to calculate a value of "a×b^2 /2" which corresponds to the volume of the tumor. The anti-tumor activity was expressed by the ratio of the volume of the tumors (T) of the group of animals administered with the test compound to the corresponding volume of tumors (C) of the untreated animals.
(2) Determination of ED50 :
On graph paper, T/C (the ratio of the volume of tumors of treated animals to that of control animals) was indicated by an arithmetic scale on the longitudinal axis and the administered amount of the test compound was indicated by a logarithmic scale on the lateral axis. The relationship between the dose and T/C was shown by a straight line determined by the method of least squares, from which a dose corresponding to T/C of 0.5 was obtained.

[6] = tested on: P-388 leukemia resistant to mitomycin C; test: Anti-tumor activity against P-388 leukemia resistant to mitomycin C; type: in vivo, mouse (CDF1); conditions: for maximum increased life span: P-388 resistant to mitomycin C, Table 4, maximum over doses; for ILS %: i.p. once
Description: as §2

peripheral leucocytes = test: Effect on the peripheral leucocytes number in tumor-carrying mice; type: in vivo, mouse (ddY strain); conditions: dose which reduces peripheral leucocytes number to 4000/mm^3; intraperitoneal, blood 4 days later
From the text: as §3
WBC4000 indicates the dose of a substance which reduces the peripheral leucocytes number to 4000/mm^3.
(4) Effect on the peripheral leucocytes number:
Sarcoma 180 solid tumor cells (5×10^6) were subcutaneously implanted into the right axilla of each mouse (body weight 20±2 g) of a group consisting of 5 male mice (ddY strain). 24 hours after implantation,a test compound was intraperitoneally administered to each animal. 4 days later, blood (each 0.02 ml) was collected from the suborbital plexus vein of each tumor-carrying animal. The collected sample of blood was dispersed in 9.98 ml of Cell-Kit Seven solution. One drop of saponin solution was added to the sample to dissolve erythrocytes and then a microcell counter was used to count the number of leucocytes. On graph paper, the number of leucocytes was indicated on the y-axis by an arithmetic scale and the dose of the test compound was indicated on the x-axis by a logarithmic scale. The relationship between the number of peripheral leucocytes and the dosage of the test compound was plotted and the dosage corresponding to 4000 peripheral leucocytes/mm^3 (about half the number of leucocytes of normal mice) was obtained. This value is denoted in Table 2 by WBC4000.

tumor [7] = conditions: reported in GB 2121796A; cited from earlier work
tumor [8] = test: Anti-tumor activity of Compound A stated in words (GB 2121796A / inventors' own observation); conditions: noted by the present inventors
[9] = ATCC10541, pH 7, read-out: minimum growth inhibitory concentration
[10] = ATCC9290, pH 7, read-out: minimum growth inhibitory concentration
[11] = pH 7, read-out: minimum growth inhibitory concentration
[12] = Bacillus subtilis, 10707, pH 7, read-out: minimum growth inhibitory concentration

C=C1C2=C(C(=O)C(C)=C(N=CN(C)C)C2=O)N2C[C@H]3[C@H](N3C)[C@]12O (stereo partly drawn) [Compound 1, 9a-O-Demethyl-7-N-dimethylaminomethylenemitomycin G]
MIC [1, 9]: 0.078 mg/L (≈ 0.238 µM) | MIC [2, 10]: 10 mg/L (≈ 30.5 µM) | MIC [3, 11]: 0.078 mg/L (≈ 0.238 µM) | MIC [4]: 10 mg/L (≈ 30.5 µM) | MIC (Bacillus subtilis 10707; [12]): 0.078 mg/L (≈ 0.238 µM) | MIC [5, 11]: 10 mg/L (≈ 30.5 µM) | ILS (leukemia P-388; dose 10 mg/kg, similar experiment): 83%

C=C1C2=C(C(=O)C(C)=C(N=CN(C)C)C2=O)N2C[C@@H]3N[C@@H]3[C@]12OC [Compound 2, 1a-Demethyl-7-N-dimethylaminoethylenemitomycin G]
MIC [1, 9]: 1.3 mg/L (≈ 3.96 µM) | MIC [2, 10]: 20 mg/L (≈ 60.9 µM) | MIC [3, 11]: 0.31 mg/L (≈ 0.944 µM) | MIC [4]: 10 mg/L (≈ 30.5 µM) | MIC (Bacillus subtilis 10707; [12]): 0.078 mg/L (≈ 0.238 µM) | MIC [5, 11]: 10 mg/L (≈ 30.5 µM)

CC1=C(N=CN(C)C)C(=O)C2=C(C1=O)N1C[C@H]3[C@H](N3C)[C@]1(O)[C@H]2COC(N)=O (stereo partly drawn) [Compound 3a, 7-N-Dimethylaminomethylenemitomycin D]
MIC [1, 9]: 5 mg/L (≈ 12.8 µM) | MIC [2, 10]: > 20 mg/L | MIC [3, 11]: 10 mg/L (≈ 25.7 µM) | MIC [4]: 2.5 mg/L (≈ 6.42 µM) | MIC (Bacillus subtilis 10707; [12]): 2.5 mg/L (≈ 6.42 µM) | LD50 at 336 h (Acute toxicity in mice): 8.3 mg/kg | ED50 (Sarcoma 180 solid tumor): 3.9 mg/kg | MIC [5, 11]: 20 mg/L (≈ 51.4 µM) | maximum increased life span [6]: 143% | ILS % ([6]; dose 1.0 mg/kg): 28% | ILS % ([6]; dose 2.0 mg/kg): 103% | ILS % ([6]; dose 4.0 mg/kg): 143% | ILS % ([6]; dose 6.0 mg/kg): 58% | ILS % ([6]; dose 8.0 mg/kg): 51% | maximum increased life span (leukemia P-388): 213% | ILS % (leukemia P-388; dose 0.25 mg/kg): 28% | ILS % (leukemia P-388; dose 0.5 mg/kg): 53% | ILS % (leukemia P-388; dose 1.0 mg/kg): 58% | ILS % (leukemia P-388; dose 2.0 mg/kg): 58% | ILS % (leukemia P-388; dose 4.0 mg/kg): 145% | ILS % (leukemia P-388; dose 6.0 mg/kg): 213% | ILS % (leukemia P-388; dose 8.0 mg/kg): 98% | anti-tumor activity against leukemia P-388 compared with Compound A (leukemia P-388; in words, versus Compound A): more excellent anti-tumor activity than Compound A | WEC4000 (peripheral leucocytes): 4.3 mg/kg

CC1=C(N=CN(C)C)C(=O)C2=C(C1=O)N1C[C@H]3[C@H](N3C)[C@]1(O)[C@H]2COC(=O)N=CN(C)C (stereo partly drawn) [Compound 3b, 7-N,N^10-bis(dimethylaminomethylene)mitomycin D]
LD50 at 336 h (Acute toxicity in mice): 26.3 mg/kg | ED50 (Sarcoma 180 solid tumor): 20.9 mg/kg | WEC4000 (peripheral leucocytes): 18.7 mg/kg

CO[C@]12[C@@H]3[C@H](CN1C1=C(C(=O)C(N=CN(C)C)=C(C)C1=O)[C@@H]2COC(N)=O)N3C (stereo partly drawn) [Compound 4a, 7-N-Dimethylaminomethylenemitomycin E]
MIC [1, 9]: 0.63 mg/L (≈ 1.56 µM) | MIC [2, 10]: 10 mg/L (≈ 24.8 µM) | MIC [3, 11]: 0.63 mg/L (≈ 1.56 µM) | MIC [4]: 2.5 mg/L (≈ 6.2 µM) | MIC (Bacillus subtilis 10707; [12]): 0.16 mg/L (≈ 0.397 µM) | MIC [5, 11]: 20 mg/L (≈ 49.6 µM)

CO[C@]12[C@@H]3[C@H](CN1C1=C(C(=O)C(N=CN(C)C)=C(C)C1=O)[C@@H]2COC(=O)N=CN(C)C)N3C (stereo partly drawn) [Compound 4b, 7-N,N^10-bis(dimethylaminomethylene)mitomycin E]
MIC [1, 9]: 5 mg/L (≈ 10.9 µM) | MIC [3, 11]: 10 mg/L (≈ 21.8 µM) | MIC [4]: 40 mg/L (≈ 87.2 µM) | MIC (Bacillus subtilis 10707; [12]): 2.5 mg/L (≈ 5.45 µM)

CC1=C(N=CN(C)C)C(=O)C2=C(C1=O)N1C[C@H]3[C@H](N3C)[C@]1(O)[C@@H]2COC(N)=O (stereo partly drawn) [Compound 6c, 9-Epi-7-N-dimethylaminomethylenemitomycin D]
MIC [1, 9]: 1.3 mg/L (≈ 3.34 µM) | MIC [2, 10]: 40 mg/L (≈ 103 µM) | MIC [3, 11]: 2.5 mg/L (≈ 6.42 µM) | MIC [4]: 0.63 mg/L (≈ 1.62 µM) | MIC (Bacillus subtilis 10707; [12]): 0.63 mg/L (≈ 1.62 µM) | LD50 at 336 h (Acute toxicity in mice): 9.4 mg/kg | ED50 (Sarcoma 180 solid tumor): 14 mg/kg | MIC [5, 11]: 5 mg/L (≈ 12.8 µM) | WEC4000 (peripheral leucocytes): 11.2 mg/kg

CO[C@@]12[C@H](COC(N)=O)C3=C(C(=O)C(C)=C(N=CN(C)C)C3=O)N1C[C@@H]1N[C@@H]12 [Compound A, 7-N-Dimethylaminomethylenemitomycin C]
anti-tumor activity (tumor [7]): particularly excellent anti-tumor activity | anti-tumor activity (tumor [8]): excellent anti-tumor activity | maximum increased life span [6]: 73% | ILS % ([6]; dose 0.25 mg/kg): 47% | ILS % ([6]; dose 0.5 mg/kg): 73% | ILS % ([6]; dose 1.0 mg/kg): 68% | ILS % ([6]; dose 2.0 mg/kg): 47% | ILS % ([6]; dose 4.0 mg/kg): -41% | ILS % ([6]; dose 6.0 mg/kg): -47% | maximum increased life span (leukemia P-388): 75% | ILS % (leukemia P-388; dose 0.0625 mg/kg): 15% | ILS % (leukemia P-388; dose 0.125 mg/kg): 48% | ILS % (leukemia P-388; dose 0.25 mg/kg): 45% | ILS % (leukemia P-388; dose 0.5 mg/kg): 63% | ILS % (leukemia P-388; dose 1.0 mg/kg): 68% | ILS % (leukemia P-388; dose 2.0 mg/kg): 75% | ILS % (leukemia P-388; dose 4.0 mg/kg): 20%

CO[C@@]12[C@H](COC(N)=O)C3=C(C(=O)C(C)=C(N)C3=O)N1C[C@@H]1N[C@@H]12 [MM-C, mitomycin C, reference compound]
MIC ([1]; ATCC10541, SF, pH 7.0, agar dilution, read-out: minimum growth inhibitory concentration): 0.31 mg/L (≈ 0.927 µM) | MIC ([2]; ATCC9290, SS, pH 7.0, agar dilution, read-out: minimum growth inhibitory concentration): 2.5 mg/L (≈ 7.48 µM) | MIC ([3]; SA, pH 7.0, agar dilution, read-out: minimum growth inhibitory concentration): 0.16 mg/L (≈ 0.479 µM) | MIC (Bacillus subtilis 10707; Bacillus subtilis, 10707, BS, pH 7.0, agar dilution, read-out: minimum growth inhibitory concentration): 0.04 mg/L (≈ 0.12 µM) | MIC ([5]; PV, pH 7.0, agar dilution, read-out: minimum growth inhibitory concentration): 0.08 mg/L (≈ 0.239 µM)
